In paper PMC5909442 (Nucleic Acids Research, 2018):

How the values were obtained:
HpoR (Ms5860) = target: T1, HpoR (Ms5860) (Mycolicibacterium smegmatis, UniProt A0R4J9); assay: isothermal titration calorimetry; type: binding
T1 sequence (A0R4J9 1-199): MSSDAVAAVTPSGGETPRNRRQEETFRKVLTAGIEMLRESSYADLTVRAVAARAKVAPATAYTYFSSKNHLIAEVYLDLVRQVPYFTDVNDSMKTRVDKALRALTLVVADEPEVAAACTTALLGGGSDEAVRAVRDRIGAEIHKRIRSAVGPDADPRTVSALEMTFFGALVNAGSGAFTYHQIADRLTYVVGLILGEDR

[1] = target: Mtb HpoR (Rv0767c); HpoRMtb (Mycobacterium tuberculosis, UniProt P9WMD7)
[2] = system: HpoR (HpoRMS) (Mycobacterium smegmatis mc2 155); assay: SPR

Sequence of Mtb HpoR (Rv0767c); HpoRMtb (P9WMD7 whole entry): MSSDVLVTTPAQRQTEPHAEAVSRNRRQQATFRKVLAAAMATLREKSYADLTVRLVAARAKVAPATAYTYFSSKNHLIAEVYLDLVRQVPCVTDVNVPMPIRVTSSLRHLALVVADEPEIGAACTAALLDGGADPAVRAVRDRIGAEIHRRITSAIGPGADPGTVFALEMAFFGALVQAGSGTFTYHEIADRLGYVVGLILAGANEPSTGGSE

Compound	Kd (HpoR (Ms5860))	UV cross-linking with radiolabelled ligand, SDS-PAGE autoradiography [1]	binding signal [2]
Nc1nc2c(ncn2[C@@H]2O[C@@H]3COP(=O)(O)O[C@H]4[C@@H](O)[C@H](n5cnc6c(=O)[nH]c(N)nc65)O[C@@H]4COP(=O)(O)O[C@H]3[C@H]2O)c(=O)[nH]1 [c-di-GMP]	1.78 ± 0.23 µM	Mtb HpoR (Rv0767c) showed a good binding ability for c-di-GMP	
Ms5860p, biotin-labeled			150 RU
